Reference: ChEMBL document CHEMBL2331359, “Ceramicines from Chisocheton ceramicus as lipid-droplets accumulation inhibitors” (Bioorg Med Chem Lett, 2013)

Assays:
[1] = Selectivity index, ratio of CC50 for mouse MC3T3-G2/PA6 cells to IC50 for inhibition of lipid droplet accumulation in mouse MC3T3-G2/PA6 cells; assay type: functional
[2] = Cytotoxicity against mouse MC3T3-G2/PA6 cells assessed as cell viability by MTT assay; assay type: cell-based
[3] = Antiadipogenic activity in mouse MC3T3-G2/PA6 cells assessed as inhibition of lipid droplet accumulation after 6 days; assay type: functional, cell-based; settings: MC3T3-G2/PA6, 144 h

IC50 [3]	SMILES	Ratio CC50/IC50 [1]	CC50 [2]
7.7 µM	CCO[C@@H]1[C@@H]2OC[C@]3(C)C=CC(=O)[C@](C)([C@H]4CC[C@]5(C)C(=CC[C@H]5c5ccoc5)[C@@]41C)[C@@H]23	2.7	20.6 µM
8.8 µM	CC(=O)O[C@@H]1[C@@H]2OC[C@]3(C)C=CC(=O)[C@](C)([C@H]4CC[C@]5(C)C(=CC[C@H]5c5ccoc5)[C@@]41C)[C@@H]23	3	26.2 µM
20.8 µM	C[C@@]12CCC(O)[C@@]3(C)[C@H]1[C@@H](OC2)[C@@H](O)[C@@]1(C)C2=CC[C@@H](c4ccoc4)[C@]2(C)CC[C@@H]13 (stereo partly specified)	>2.4	> 50 µM
> 50 µM	C/C=C(\C)C(=O)O[C@H]1C[C@H]2[C@](C)(C3=CC[C@@H](c4ccoc4)[C@@]31C)[C@H](O)[C@@H]1OC[C@]3(C)C=CC(=O)[C@@]2(C)[C@@H]13 [CERAMICINE H]		> 50 µM
> 50 µM	C[C@@]12CC[C@@H]3[C@@]4(C)C(=O)C=C[C@@]5(C)CO[C@@H]([C@@H](O)[C@@]3(C)[C@@H]1C(=O)C[C@H]2c1ccoc1)[C@H]45 [CERAMICINE J]		> 50 µM
6.2 µM	CC(=O)O[C@@H]1[C@H]2[C@@H](O)C=CC(=O)[C@]2(C)[C@H]2CC[C@]3(C)C(=CC[C@H]3c3ccoc3)[C@]2(C)[C@@H]1O [CERAMICINES A]	5	30.7 µM
> 50 µM	C[C@]12C3=CC[C@@H](C4=CCOC4=O)[C@]3(C)CC[C@@H]1[C@@]1(C)C(=O)C=C[C@@]3(C)CO[C@@H]([C@H]2O)[C@H]13 [CERAMICINES D]		> 50 µM

More lines, now with the values behind:

SMILES	IC50 [3]	Ratio CC50/IC50 [1]	CC50 [2]
COCO[C@@H]1[C@@H]2OC[C@]3(C)C=CC(=O)[C@](C)([C@H]4CC[C@]5(C)C(=CC[C@H]5c5ccoc5)[C@@]41C)[C@@H]23	8.5 µM	2.3	19.7 µM
C[C@]12C3=CC[C@@H](c4ccoc4)[C@]3(C)CC[C@@H]1[C@@]1(C)C(=O)C=C[C@@]3(C)CO[C@@H]([C@H]2OC(=O)C(F)(F)F)[C@H]13	7.3 µM	1.9	13.7 µM
C[C@]12C3=CC[C@@H](c4ccoc4)[C@]3(C)CC[C@@H]1[C@@]1(C)C(=O)C=C[C@@]3(C)CO[C@@H]([C@H]2OC(=O)c2ccccc2)[C@H]13	> 50 µM		> 50 µM
C[C@]12C3=CC[C@@H](c4ccoc4)[C@]3(C)CC[C@@H]1[C@@]1(C)C(=O)C=C[C@@]3(C)CO[C@@H]([C@H]2OC(=O)c2ccncc2)[C@H]13	18.7 µM	0.9	17.2 µM
C[C@]12CCC(=O)[C@]3(C)[C@H]4CC[C@]5(C)C(=CCC5C5CCOC5)[C@]4(C)[C@H](O)[C@H](OC1)[C@@H]23 (stereo partly specified)	> 50 µM		> 50 µM
C[C@@]12C(=O)C=C[C@@]3(C)COC(=C[C@@]4(C)C5=CC[C@@H](c6ccoc6)[C@]5(C)CC[C@H]14)[C@H]23	29.5 µM	>1.7	> 50 µM
CC(=O)O[C@H]1[C@@H](O)[C@@]2(C)C3=CC[C@@H](c4ccoc4)[C@]3(C)CC[C@@H]2[C@@]2(C)C(=O)[C@H]3O[C@H]3[C@]3(CO3)[C@H]12 [CERAMICINE E]	44.1 µM	1.1	48.4 µM
C[C@@]1(C=O)C=CC(=O)[C@]2(C)[C@H]3CC[C@]4(C)C(=CC[C@H]4c4ccoc4)[C@]3(C)[C@H](O)[C@H](O)[C@@H]12 [CERAMICINE F]	22.4 µM	1.1	25 µM
COC(=O)[C@]1(C)C=CC(=O)[C@]2(C)[C@H]3CC[C@]4(C)C(=CC[C@H]4c4ccoc4)[C@]3(C)[C@H](O)[C@H](O)[C@H]21 [CERAMICINE G]	38.4 µM	1.9	72.9 µM
CC(=O)O[C@H]1C[C@H]2[C@](C)(C3=CC[C@@H](c4ccoc4)[C@@]31C)[C@H](O)[C@@H]1OC[C@]3(C)C=CC(=O)[C@@]2(C)[C@@H]13 [CERAMICINE I]	41 µM	>1.2	> 50 µM
CC(=O)O[C@H]1C=CC(=O)[C@@]2(C)[C@H]1[C@@H](O)[C@@H](O)[C@@]1(C)C3=CC[C@@H](c4ccoc4)[C@]3(C)CC[C@H]21 [CERAMICINE K]	> 50 µM		> 50 µM
C[C@]12C3=CC[C@@H](c4ccoc4)[C@]3(C)CC[C@@H]1[C@@]1(C)C(=O)C=C[C@@](C)(O)[C@@H]1[C@@H](O)[C@H]2O [CERAMICINE L]	> 50 µM		> 50 µM
C[C@]12C3=CC[C@@H](c4ccoc4)[C@]3(C)CC[C@@H]1[C@@]1(C)C(=O)C=C[C@@]3(C)CO[C@@H]([C@H]2O)[C@H]13 [CERAMICINES B]	1.8 µM	8.8	15.9 µM
C=C(C)C(=O)O[C@H]1C[C@H]2[C@](C)(C3=CC[C@@H](c4ccoc4)[C@@]31C)[C@H](O)[C@@H]1OC[C@]3(C)C=CC(=O)[C@@]2(C)[C@@H]13 [CERAMICINES C]	19.1 µM	1.2	21.9 µM
